Data as given in US10376456B2, “Concentrated and self-preserving compositions of mild surfactants for transparent and skin-pH personal care formulations” (GALAXY SURFACTANTS LTD., priority 2015, dated 2019).

Key:
[1] = Critical micelle concentration (CMC); assay type: physicochemical
Source text: It is well established that in case of surfactants, lower the CMC value, milder the surfactants. Ionic surfactant molecules interact with proteins through charge-charge interaction since the charge density on the head group is high. Whenever aggregates are formed the charge density of micelle is much lesser as the charge gets spread over the large micelle. […] It can be seen from Table 2 that CMC of anionic sodium lauryl sulphate (SLS) is the highest and zwitterionic (electrically neutral) cocoamidopropyl (CAPB) is the lowest.

[2] = test system: subject's volar arm; assay: Corneometry analysis of skin hydration after repeated application of body-wash; assay type: in vivo; conditions: body-wash 12% active matter, 2% PEG-150 distearate, twice a day for fifteen days, 50% RH, 20° C.
Source text: Removal of Natural Moisturizing Factor (NMF) from stratum corneum during cleansing leads to a lower capacitance reading since there is less secondary bound water in the skin's corneocytes. […] The corneometer findings are consistent with the TEWL findings.

Row | Compound | CMC [1] [mM/liter] | Skin moisture level (corneometry) [2]
1 | sodium cocoyl glycinate | 1.01 | 
2 | CCCCCCCCCCCCOS(=O)(=O)[O-].[Na+] [SLS, sodium lauryl sulfate] | 5.90 | 
3 | Cocoamidopropyl betaine [CAPB] | 0.06 | 
4 | Sodium cocoyl isethionate | 0.14 | 
5 | Sodium lauryl ether sulfate [sodium lauryl ether sulphate (2 EO)] |  | dry the stratum corneum
